The structures appear in SMILES notation. Some results are limits rather than exact numbers.

One may read the Ki as a measure of affinity in units of concentration, obtained from inhibition or displacement. Lower therefore signals higher affinity.

Assay [1] addresses T1, Synaptic vesicular amine transporter (Rattus norvegicus, UniProt Q01827). In words: Inhibition of [3H]DA uptake at VMAT2 in rat striatal synaptic vesicles.
Assay [2] addresses T1, Synaptic vesicular amine transporter. Put plainly: Inhibition of [3H]DTBZ binding to VMAT2 in rat synaptic vesicle membranes. Format: cell membranes.

T1 sequence (Q01827 whole entry): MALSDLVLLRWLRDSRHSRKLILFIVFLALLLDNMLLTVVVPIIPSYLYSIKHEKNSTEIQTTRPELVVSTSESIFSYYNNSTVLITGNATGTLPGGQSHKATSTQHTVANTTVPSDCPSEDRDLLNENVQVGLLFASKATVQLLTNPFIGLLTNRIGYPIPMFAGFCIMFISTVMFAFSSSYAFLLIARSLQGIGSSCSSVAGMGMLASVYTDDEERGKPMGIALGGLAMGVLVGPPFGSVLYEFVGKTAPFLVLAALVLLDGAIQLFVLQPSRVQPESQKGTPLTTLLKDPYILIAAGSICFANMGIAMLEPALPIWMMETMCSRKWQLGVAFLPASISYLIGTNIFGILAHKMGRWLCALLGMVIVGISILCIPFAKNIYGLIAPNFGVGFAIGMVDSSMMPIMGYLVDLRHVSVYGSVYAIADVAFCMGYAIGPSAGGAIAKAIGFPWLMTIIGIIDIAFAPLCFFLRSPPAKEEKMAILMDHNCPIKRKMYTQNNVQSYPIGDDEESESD

Consider `c1ccc(CC[C@H]2CCC[C@@H](CCc3ccccc3)N2)cc1`, for which the affinity in assay [1] corresponds to a Ki of 44 nM.

Consider `CCN1[C@@H](CCc2ccccc2)CCC[C@H]1CCc1ccccc1`, for which the affinity in assay [1] corresponds to a Ki of 60 nM.

In turn, `CCCN1[C@@H](CCc2ccccc2)CCC[C@H]1CCc1ccccc1` gave a Ki in assay [1] of 87 nM.

For the compound `COC(=O)CN1[C@@H](CCc2ccccc2)CCC[C@H]1CCc1ccccc1`, the Ki was 340 nM in assay [1] and 4400 nM in assay [2].

As for `OCCN1[C@@H](CCc2ccccc2)CCC[C@H]1CCc1ccccc1`, the Ki in assay [1] is 170 nM; in assay [2] it was 1430 nM.

Turning to `N#CCN1[C@@H](CCc2ccccc2)CCC[C@H]1CCc1ccccc1`, the Ki in assay [1] is 4490 nM; in assay [2], 22600 nM.

Turning to `NCCN1[C@@H](CCc2ccccc2)CCC[C@H]1CCc1ccccc1`, the Ki in assay [1] was determined as 510 nM; in assay [2] it was 5590 nM.

Turning to `CN(C)CCN1[C@@H](CCc2ccccc2)CCC[C@H]1CCc1ccccc1`, the Ki in assay [1] is 180 nM; in assay [2] it was 9590 nM.

For `N=C(N)NCCN1[C@@H](CCc2ccccc2)CCC[C@H]1CCc1ccccc1`, the figures for the inhibition constant (Ki) in assay [1] and in assay [2] were 680 nM and 3490 nM, respectively.

As to `CN(C)N1[C@@H](CCc2ccccc2)CCC[C@H]1CCc1ccccc1`, the Ki in assay [1] is 54 nM; in assay [2] it was more than 100000 nM.

For the compound `OC[C@H](O)CN1[C@@H](CCc2ccccc2)CCC[C@H]1CCc1ccccc1`, the Ki amounted to 190 nM in assay [1] and 560 nM in assay [2].

For the compound `OC[C@@H](O)CN1[C@@H](CCc2ccccc2)CCC[C@H]1CCc1ccccc1`, the figures for the Ki in assay [1] and in assay [2] were 860 nM and 1280 nM, respectively.

On to `OC[C@H](O)CN1[C@@H](CCc2ccc3c(c2)OCO3)CCC[C@H]1CCc1ccc2c(c1)OCO2`, for which the Ki in assay [1] was found to be 160 nM; in assay [2], 1300 nM.

In the case of `OC[C@@H](O)CN1[C@@H](CCc2ccc3c(c2)OCO3)CCC[C@H]1CCc1ccc2c(c1)OCO2`, the Ki was determined as 760 nM in assay [1] and 5610 nM in assay [2].

For the compound `OC[C@H](O)CN1[C@@H](CCc2cccc(F)c2)CCC[C@H]1CCc1cccc(F)c1`, the Ki turned out to be 190 nM in assay [1] and 1000 nM in assay [2].

For the compound `OC[C@@H](O)CN1[C@@H](CCc2cccc(F)c2)CCC[C@H]1CCc1cccc(F)c1`, the values for the inhibition constant Ki in assay [1] and in assay [2] were 1030 nM and 1080 nM, respectively.

Consider `COc1ccccc1CC[C@H]1CCC[C@@H](CCc2ccccc2OC)N1C[C@@H](O)CO`, for which the figures for the Ki in assay [1] and in assay [2] were 490 nM and 1040 nM, respectively.

As to `COc1ccccc1CC[C@H]1CCC[C@@H](CCc2ccccc2OC)N1C[C@H](O)CO`, the inhibition constant (Ki) came to 790 nM in assay [1] and 1870 nM in assay [2].

`COc1cccc(CC[C@H]2CCC[C@@H](CCc3cccc(OC)c3)N2C[C@@H](O)CO)c1`: the results for the Ki in assay [1] and in assay [2] were 140 nM and 460 nM, respectively.

Regarding `COc1cccc(CC[C@H]2CCC[C@@H](CCc3cccc(OC)c3)N2C[C@H](O)CO)c1`, the results for the Ki in assay [1] and in assay [2] were 520 nM and 2730 nM, respectively.

For the compound `OC[C@H](O)CN1[C@@H](CCc2ccc(Cl)cc2Cl)CCC[C@H]1CCc1ccc(Cl)cc1Cl`, the Ki came to 140 nM in assay [1] and 10400 nM in assay [2].

For `OC[C@@H](O)CN1[C@@H](CCc2ccc(Cl)cc2Cl)CCC[C@H]1CCc1ccc(Cl)cc1Cl`, the Ki in assay [1] turned out to be 90 nM; in assay [2], 13900 nM.

As to `OC[C@H](O)CN1[C@@H](CCc2cccc3ccccc23)CCC[C@H]1CCc1cccc2ccccc12`, the Ki in assay [1] amounted to 30 nM; in assay [2] it was 310 nM.

`OC[C@@H](O)CN1[C@@H](CCc2cccc3ccccc23)CCC[C@H]1CCc1cccc2ccccc12`: the Ki in assay [1] was 80 nM; in assay [2] it was 130 nM.

For the compound `OC[C@H](O)CN1[C@@H](CCc2ccc(-c3ccccc3)cc2)CCC[C@H]1CCc1ccc(-c2ccccc2)cc1`, the Ki in assay [1] is 790 nM; in assay [2], more than 100000 nM.

For the compound `OC[C@@H](O)CN1[C@@H](CCc2ccc(-c3ccccc3)cc2)CCC[C@H]1CCc1ccc(-c2ccccc2)cc1`, the inhibition constant (Ki) in assay [1] came out at 2250 nM; in assay [2] it was 90200 nM.

`FC(F)Oc1ccc(CC[C@H]2CCC[C@@H](CCc3ccc(OC(F)F)cc3)N2)cc1`: the Ki in assay [1] stood at 23 nM; in assay [2], 1750 nM.

For the compound `OC[C@H](O)CN1[C@@H](CCc2ccc(OC(F)F)cc2)CCC[C@H]1CCc1ccc(OC(F)F)cc1`, the figures for the Ki in assay [1] and in assay [2] were 60 nM and 530 nM, respectively.

As for `COc1ccc(F)c(CC[C@H]2CCC[C@@H](CCc3cc(OC)ccc3F)N2)c1`, the Ki in assay [1] was 39 nM; in assay [2] it was 930 nM.

Turning to `COc1ccc(F)c(CC[C@H]2CCC[C@@H](CCc3cc(OC)ccc3F)N2C[C@@H](O)CO)c1`, the Ki came to 160 nM in assay [1] and 210 nM in assay [2].

On to `Fc1cc(F)cc(CC[C@H]2CCC[C@@H](CCc3cc(F)cc(F)c3)N2)c1`, for which the Ki in assay [1] is 43 nM; in assay [2] it was 5240 nM.

For `OC[C@H](O)CN1[C@@H](CCc2cc(F)cc(F)c2)CCC[C@H]1CCc1cc(F)cc(F)c1`, the Ki worked out at 104 nM in assay [1] and 620 nM in assay [2].

`COc1ccc(C[C@H]2CCC[C@@H](Cc3ccc(OC)cc3)N2)cc1`: the Ki stood at 48 nM in assay [1] and 13100 nM in assay [2].

Regarding `COc1ccc(C[C@H]2CCC[C@@H](Cc3ccc(OC)cc3)N2C[C@@H](O)CO)cc1`, the Ki is 570 nM in assay [1] and 91000 nM in assay [2].

These data come from ChEMBL document CHEMBL3132792, “Exploring the effect of N-substitution in nor-lobelane on the interaction with VMAT2: discovery of a potential clinical candidate for treatment of methamphetamine abuse” (Medchemcomm, 2013).
